Like-named read-outs stand apart in the source and are kept apart here.
Experiments:
Pf Dd2-B2 ABS parasites = test: 72-h asexual blood stage (ABS) growth inhibition assay, Dd2-B2; type: cell-based, Plasmodium falciparum
Experimental: Synchronicity was achieved using three rounds of sorbitol treatment on early rings, spaced 48 h apart, followed by magnetic purification of segmented schizonts following the final sorbitol treatment. Parasites were highly synchronous to within a 3 h window of development. Assays were repeated on at least three independent occasions (each with technical duplicates) and statistical significance was assessed using Mann Whitney U tests.

[1] = tested on: phosphoproteome of Dd2-B2 Pf schizonts; test: Phosphoproteomics of Dd2-B2 schizonts exposed to 1200 nM MMV030084 for 3 h; type: cell-based, Plasmodium falciparum; conditions: 1,200 nM, vs untreated
Experimental: Red blood cells were lysed by 0.1% saponin in washing buffer (20 mM β-glycerophosphate, 1 tablet of cOmplete protease inhibitor cocktail (Roche), and 1 tablet of PhosSTOP phosphatase inhibitor (Roche) per 10 ml PBS). Parasites were subsequently washed three times in washing buffer. Parasite pellets were stored at -80°C until all samples from two independently repeated exposure experiments were collected. Proteins were extracted from schizont pellets by sonication and lysis in Tris-EDTA buffer (10 mM Tris-HCl, 5 mM EDTA, 20 mM ß-glycerolphosphate; pH 7.4, 1% NP-40, 2% CHAPS) followed by reduction of disulfide bonds and alkylation. Samples were digested with trypsin at a ratio of 1:15 (w/w) trypsin and proteins concentrated using S-trap columns (ProtiFi) for 1 h at 47°C. For tandem mass tag (TMT) labelling, digested samples were incubated with TMTsixplex reagents (Thermo Scientific). All labeled samples were pooled together, loaded onto an anion-exchange column, and fractionated on an AKTA purifier (GE Healthcare). The fractions were concentrated and phosphopeptides were enriched using titanium dioxide (TiO2) and immobilized metal affinity chromatography (IMAC). […] We also analyzed the peptide sequences for patterns that conformed to the previously established PfPKG consensus motif K/RR/KxpS/pT and the PfPKA consensus motif K/RxxpS/pT ([Francis et al., 2010]).

[2] = target: T1, human protein extracts (Mixed: HEK-293/ K-562/ Placenta/ Hep G2) (Homo sapiens, UniProt P08240); test: Chemoproteomic profiling, MS/MS data for all quantified proteins (Table S1 E3); type: binding
T1 construct: endogenous in cells; host or cells: mixture of HEK-293, K-562, Hep G2 and placenta
Experimental: (§1) Human extracts were prepared as described ([Bantscheff et al., 2011]). Briefly, frozen cell pellets were homogenized in lysis buffer (50 mM Tris-HCl, 0.8% Igepal-CA630, 5% glycerol, 150 mM NaCl, 1.5 mM MgCl2, 25 mM sodium fluoride, 1 mM sodium vanadate, 1 mM DTT, pH 7.5). One cOmplete EDTA-free protease inhibitor tablet (Roche) was added per 25 ml. Samples were dispersed using a Dounce homogenizer, rotated for 30 min at 4°C, and centrifuged at 20,000g for 10 min at 4°C. Supernatants were then recentrifuged at 145,000g for 1 h at 4°C. Protein concentrations were determined using a Bradford assay (BioRad). Aliquots were snap frozen in liquid nitrogen and stored at −80°C.
(§2) Kinobeads were prepared by immobilizing Bis-(III) indolyl-maleimide, purvalanol B, staurosporine and CZC8004, and the analogs of PD173955, sunitinib and vandetanib on NHS-activated Sepharose 4 beads (Amersham) ([Bantscheff et al., 2007]). […] The chemoproteomic affinity-capturing experiments were performed as previously described ([Bantscheff et al., 2011]). Briefly, beads were washed and equilibrated in lysis buffer (50 mM Tris-HCl, pH 7.4, 0.4 % Igepal-CA630, 1.5 mM MgCl2, 5 % Glycerol, 150 mM NaCl, 25 mM NaF, 1 mM Na3VO4, 1 mM DTT, and one cOmplete EDTA-free protease inhibitor tablet (Roche) per 25 mL). […] 10 samples were measured in parallel (TMT 10-plex ([Werner et al., 2014])) to generate values for the affinity of the beads to the bound proteins (“depletion” values, 4 samples) and to generate IC50 values (6 samples) in a single experiment. Apparent dissociation constants were determined after accounting for protein depletion by the beads ([Bantscheff et al., 2011]). […]
(§3) Proteins were digested according to a modified single pot solid-phase sample preparation (SP3) protocol ([Hughes et al., 2014]). Peptides were labeled with isobaric mass tags (Thermo Fisher Scientific, Waltham, MA) using 10-plex TMT reagents, enabling relative quantification of 10 conditions in a single experiment ([Werner et al., 2014]). […]

[3] = target: T2, human protein extracts (Mixed: HEK-293/ K-562/ Placenta/ Hep G2) (Homo sapiens, UniProt P21127); test: as above; type: binding
T2 construct: endogenous in cells; host or cells: mixture of HEK-293, K-562, Hep G2 and placenta
Experimental: as §1, §2, §3

[4] = target: T3, human protein extracts (Mixed: HEK-293/ K-562/ Placenta/ Hep G2) (Homo sapiens, UniProt Q7L576); test: as above; type: binding
T3 construct: endogenous in cells; host or cells: mixture of HEK-293, K-562, Hep G2 and placenta
Experimental: as §1, §2, §3

casein kinase 1δ = target: T4, casein kinase 1δ (Homo sapiens, UniProt P48730); test: Chemoproteomics in human mixed tissue extracts; type: binding; conditions: read-out: Kdapp
T4 construct: human cell/tissue protein extract (a mixture of HEK-293, K-562, Hep G2 , and placental cells); endogenous in cells; host or cells: mixture of HEK-293, K-562, Hep G2 and placenta
Experimental: as §1
(§4) Kinobeads were prepared by immobilizing Bis-(III) indolyl-maleimide, purvalanol B, staurosporine and CZC8004, and the analogs of PD173955, sunitinib and vandetanib on NHS-activated Sepharose 4 beads (Amersham) ([Bantscheff et al., 2007]). […] The chemoproteomic affinity-capturing experiments were performed as previously described ([Bantscheff et al., 2011]). Briefly, beads were washed and equilibrated in lysis buffer (50 mM Tris-HCl, pH 7.4, 0.4 % Igepal-CA630, 1.5 mM MgCl2, 5 % Glycerol, 150 mM NaCl, 25 mM NaF, 1 mM Na3VO4, 1 mM DTT, and one cOmplete EDTA-free protease inhibitor tablet (Roche) per 25 mL). The beads were incubated at 4°C for 1 h with either 0.1 ml (0.3 mg) Pf blood stage extract or 0.5 mL (2.5 mg) human cell/tissue protein extract (a mixture of HEK-293, K-562, Hep G2 , and placental cells), which was pre-incubated with compound or DMSO (vehicle control). 10 samples were measured in parallel (TMT 10-plex ([Werner et al., 2014])) to generate values for the affinity of the beads to the bound proteins (“depletion” values, 4 samples) and to generate IC50 values (6 samples) in a single experiment. Apparent dissociation constants were determined after accounting for protein depletion by the beads ([Bantscheff et al., 2011]). Beads were transferred to Filter plates (Durapore PVDF membrane, Merck Millipore), washed with lysis buffer, and eluted with SDS sample buffer.
(§5) Proteins were digested according to a modified single pot solid-phase sample preparation (SP3) protocol ([Hughes et al., 2014]). Peptides were labeled with isobaric mass tags (Thermo Fisher Scientific, Waltham, MA) using 10-plex TMT reagents, enabling relative quantification of 10 conditions in a single experiment ([Werner et al., 2014]). The labeling reactions and LC-MS/MS measurements using Q Exactive Orbitrap or Orbitrap Fusion Lumos mass spectrometers (Thermo Fisher Scientific) were performed as described elsewhere ([Sridharan et al., 2019]). Mascot 2.4 (Matrix Science, Boston, MA) was used for protein identification by using a 10 parts per million mass tolerance for peptide precursors and 20 mD (HCD) mass tolerance for fragment ions. To create the fasta file for mascot searching, all proteins corresponding to the taxonomy ‘Plasmodium falciparum (isolate 3D7)’ were downloaded from Uniprot (release 20170621) and supplemented with common contaminant protein sequences of bovine serum albumin, porcine trypsin and mouse, rat, sheep and dog keratins. To assess the false discovery rate (FDR), “decoy” proteins (reverse of all protein sequences) were created and added to the database, resulting in a database containing a total of 14266 protein sequences, with 50% forward and 50% reverse. For peptide and protein identification of human proteins see ([Sridharan et al., 2019]). Unless stated otherwise, we accepted protein identifications as follows: (i) For single-spectrum to sequence assignments, we required this assignment to be the best match and a minimum Mascot score of 31 and a 10× difference of this assignment over the next best assignment. Based on these criteria, the decoy search results indicated <1% false discovery rate (FDR). (ii) For multiple spectrum to sequence assignments and using the same parameters, the decoy search results indicated <0.1% FDR. […]

nemo-like kinase = target: T5, nemo-like kinase (Homo sapiens, UniProt Q9UBE8); test: Chemoproteomics in human mixed tissue extracts; type: binding; conditions: read-out: Kdapp
T5 construct: human cell/tissue protein extract (a mixture of HEK-293, K-562, Hep G2 , and placental cells); endogenous in cells; host or cells: mixture of HEK-293, K-562, Hep G2 and placenta
Experimental: as §1, §4, §5

protein kinase N3 = target: T6, protein kinase N3 (Homo sapiens, UniProt Q6P5Z2); test: Chemoproteomics in human mixed tissue extracts; type: binding; conditions: read-out: Kdapp
T6 construct: human cell/tissue protein extract (a mixture of HEK-293, K-562, Hep G2 , and placental cells); endogenous in cells; host or cells: mixture of HEK-293, K-562, Hep G2 and placenta
Experimental: as §1, §4, §5

[5] = target: T7, receptor interacting serine/threonine kinase 2 (Homo sapiens, UniProt O43353); test: Chemoproteomics in human mixed tissue extracts; type: binding; conditions: read-out: Kdapp
T7 construct: human cell/tissue protein extract (a mixture of HEK-293, K-562, Hep G2 , and placental cells); endogenous in cells; host or cells: mixture of HEK-293, K-562, Hep G2 and placenta
Experimental: as §1, §4, §5

[6] = target: T8, testis-associated actin remodeling kinase 2 (Homo sapiens, UniProt Q96S53); test: Chemoproteomics in human mixed tissue extracts; type: binding; conditions: read-out: Kdapp
T8 construct: human cell/tissue protein extract (a mixture of HEK-293, K-562, Hep G2 , and placental cells); endogenous in cells; host or cells: mixture of HEK-293, K-562, Hep G2 and placenta
Experimental: as §1, §4, §5

[7] = target: T9, transforming growth factor β receptor 1 (Homo sapiens, UniProt P36897); test: Chemoproteomics in human mixed tissue extracts; type: binding; conditions: read-out: Kdapp
T9 construct: human cell/tissue protein extract (a mixture of HEK-293, K-562, Hep G2 , and placental cells); endogenous in cells; host or cells: mixture of HEK-293, K-562, Hep G2 and placenta
Experimental: as §1, §4, §5

[8] = target: T10, transforming growth factor β receptor 2 (Homo sapiens, UniProt P37173); test: Chemoproteomics in human mixed tissue extracts; type: binding; conditions: read-out: Kdapp
T10 construct: human cell/tissue protein extract (a mixture of HEK-293, K-562, Hep G2 , and placental cells); endogenous in cells; host or cells: mixture of HEK-293, K-562, Hep G2 and placenta
Experimental: as §1, §4, §5

[9] = tested on: ed. Dd2-B2 TKL3I1250M+T1268R; test: 72-h ABS assay, CRISPR/Cas9-edited double-mutant line; type: cell-based; conditions: Plasmodium falciparum, parent Dd2-B2 wild-type
Excerpt: Supplement mmc2.xlsx, sheet "Table S1 (I)" | column: Mean IC50

in vitro = conditions: human

T9 sequence (P36897 34-503): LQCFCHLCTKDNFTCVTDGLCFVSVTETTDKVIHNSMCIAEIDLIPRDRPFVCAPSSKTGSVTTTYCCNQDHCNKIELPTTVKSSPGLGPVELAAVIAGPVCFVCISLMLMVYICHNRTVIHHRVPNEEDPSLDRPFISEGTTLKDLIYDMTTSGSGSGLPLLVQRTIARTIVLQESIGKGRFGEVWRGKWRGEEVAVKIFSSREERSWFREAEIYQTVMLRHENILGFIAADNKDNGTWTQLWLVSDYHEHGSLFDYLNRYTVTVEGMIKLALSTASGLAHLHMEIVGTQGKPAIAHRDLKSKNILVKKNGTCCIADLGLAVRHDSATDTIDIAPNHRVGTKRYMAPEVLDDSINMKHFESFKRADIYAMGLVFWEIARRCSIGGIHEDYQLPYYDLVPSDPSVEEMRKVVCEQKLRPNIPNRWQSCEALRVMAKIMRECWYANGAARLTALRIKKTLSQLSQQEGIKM
T1 sequence (P08240 whole entry): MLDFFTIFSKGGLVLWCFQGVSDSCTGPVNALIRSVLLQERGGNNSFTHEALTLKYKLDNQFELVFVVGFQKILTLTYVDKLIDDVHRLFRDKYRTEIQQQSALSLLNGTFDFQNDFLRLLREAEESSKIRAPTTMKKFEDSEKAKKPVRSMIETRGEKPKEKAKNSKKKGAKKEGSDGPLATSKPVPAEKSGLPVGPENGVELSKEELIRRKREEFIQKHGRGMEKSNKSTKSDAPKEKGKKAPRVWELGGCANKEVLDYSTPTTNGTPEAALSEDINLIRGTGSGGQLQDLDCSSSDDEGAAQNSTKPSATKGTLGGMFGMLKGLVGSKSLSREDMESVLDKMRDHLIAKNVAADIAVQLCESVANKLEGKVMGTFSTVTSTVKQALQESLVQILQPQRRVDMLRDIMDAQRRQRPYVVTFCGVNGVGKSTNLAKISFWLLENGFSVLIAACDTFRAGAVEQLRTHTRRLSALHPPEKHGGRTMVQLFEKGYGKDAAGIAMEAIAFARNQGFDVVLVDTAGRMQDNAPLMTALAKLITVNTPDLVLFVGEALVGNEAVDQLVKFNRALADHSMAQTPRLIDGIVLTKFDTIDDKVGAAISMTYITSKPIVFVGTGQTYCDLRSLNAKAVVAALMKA
T2 sequence (P21127 whole entry): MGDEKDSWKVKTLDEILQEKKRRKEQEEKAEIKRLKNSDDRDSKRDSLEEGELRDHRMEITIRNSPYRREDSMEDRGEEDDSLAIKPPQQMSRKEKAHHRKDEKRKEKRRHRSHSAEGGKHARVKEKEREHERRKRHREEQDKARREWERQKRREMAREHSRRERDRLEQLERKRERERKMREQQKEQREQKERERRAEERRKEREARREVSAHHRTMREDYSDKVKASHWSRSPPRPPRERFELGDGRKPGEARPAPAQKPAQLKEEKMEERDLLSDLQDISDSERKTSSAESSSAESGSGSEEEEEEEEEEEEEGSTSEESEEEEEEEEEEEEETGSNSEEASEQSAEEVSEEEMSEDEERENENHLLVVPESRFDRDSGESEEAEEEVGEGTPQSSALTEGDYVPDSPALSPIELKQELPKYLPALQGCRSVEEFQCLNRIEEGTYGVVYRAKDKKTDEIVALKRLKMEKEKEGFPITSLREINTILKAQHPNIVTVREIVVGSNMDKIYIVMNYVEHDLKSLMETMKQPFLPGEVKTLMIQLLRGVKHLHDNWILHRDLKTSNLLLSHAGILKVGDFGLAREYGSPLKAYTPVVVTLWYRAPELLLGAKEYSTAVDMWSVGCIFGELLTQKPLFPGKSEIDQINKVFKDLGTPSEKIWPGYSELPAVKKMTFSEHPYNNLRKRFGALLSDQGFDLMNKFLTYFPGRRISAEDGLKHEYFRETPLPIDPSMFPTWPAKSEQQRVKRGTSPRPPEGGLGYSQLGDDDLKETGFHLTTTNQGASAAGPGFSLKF
T5 sequence (Q9UBE8 whole entry): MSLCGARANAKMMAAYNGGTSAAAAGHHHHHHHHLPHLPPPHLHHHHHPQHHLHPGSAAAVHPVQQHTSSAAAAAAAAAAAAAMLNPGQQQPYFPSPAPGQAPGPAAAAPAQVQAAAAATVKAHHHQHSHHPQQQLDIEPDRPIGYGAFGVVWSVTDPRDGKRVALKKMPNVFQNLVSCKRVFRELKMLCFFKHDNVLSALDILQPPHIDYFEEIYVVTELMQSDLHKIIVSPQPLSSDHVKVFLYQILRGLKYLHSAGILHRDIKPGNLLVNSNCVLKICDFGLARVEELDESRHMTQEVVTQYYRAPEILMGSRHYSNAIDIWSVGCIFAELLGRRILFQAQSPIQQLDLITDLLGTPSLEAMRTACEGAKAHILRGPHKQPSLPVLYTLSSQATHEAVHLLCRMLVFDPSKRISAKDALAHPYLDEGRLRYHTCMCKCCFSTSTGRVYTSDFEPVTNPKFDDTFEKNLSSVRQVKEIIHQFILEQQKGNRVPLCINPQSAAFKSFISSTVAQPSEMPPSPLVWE
T3 sequence (Q7L576 whole entry): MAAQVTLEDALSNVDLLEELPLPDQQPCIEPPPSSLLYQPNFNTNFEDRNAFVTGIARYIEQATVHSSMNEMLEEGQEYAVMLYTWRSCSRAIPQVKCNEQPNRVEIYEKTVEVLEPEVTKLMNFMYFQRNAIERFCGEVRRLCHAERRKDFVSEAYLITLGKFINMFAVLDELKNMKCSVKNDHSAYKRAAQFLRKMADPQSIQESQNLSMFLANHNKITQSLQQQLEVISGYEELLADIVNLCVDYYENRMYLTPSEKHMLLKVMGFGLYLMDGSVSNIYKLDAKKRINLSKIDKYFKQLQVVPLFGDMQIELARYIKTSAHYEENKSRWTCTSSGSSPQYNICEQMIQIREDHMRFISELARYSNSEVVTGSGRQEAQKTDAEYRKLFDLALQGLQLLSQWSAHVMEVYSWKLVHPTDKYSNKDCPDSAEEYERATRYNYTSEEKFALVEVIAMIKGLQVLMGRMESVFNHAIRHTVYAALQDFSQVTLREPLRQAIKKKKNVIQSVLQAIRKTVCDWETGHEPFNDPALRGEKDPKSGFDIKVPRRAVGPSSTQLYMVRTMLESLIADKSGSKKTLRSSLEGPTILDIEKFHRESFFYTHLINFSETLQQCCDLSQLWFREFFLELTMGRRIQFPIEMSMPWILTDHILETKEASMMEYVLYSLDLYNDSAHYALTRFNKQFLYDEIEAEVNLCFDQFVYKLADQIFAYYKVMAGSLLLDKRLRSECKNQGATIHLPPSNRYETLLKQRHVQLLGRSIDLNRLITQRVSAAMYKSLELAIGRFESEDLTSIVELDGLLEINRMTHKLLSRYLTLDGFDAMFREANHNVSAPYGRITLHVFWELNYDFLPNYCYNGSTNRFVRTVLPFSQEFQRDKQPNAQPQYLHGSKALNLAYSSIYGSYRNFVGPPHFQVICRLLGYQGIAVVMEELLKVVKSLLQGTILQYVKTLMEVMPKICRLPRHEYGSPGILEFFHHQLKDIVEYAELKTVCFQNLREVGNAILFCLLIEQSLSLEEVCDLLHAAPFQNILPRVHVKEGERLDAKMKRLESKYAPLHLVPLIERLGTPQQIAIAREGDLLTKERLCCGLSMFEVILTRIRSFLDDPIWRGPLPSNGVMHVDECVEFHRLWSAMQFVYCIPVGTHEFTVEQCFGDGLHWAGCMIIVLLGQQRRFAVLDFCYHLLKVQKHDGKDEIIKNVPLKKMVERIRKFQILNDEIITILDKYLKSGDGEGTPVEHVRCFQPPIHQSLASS
T4 sequence (P48730 whole entry): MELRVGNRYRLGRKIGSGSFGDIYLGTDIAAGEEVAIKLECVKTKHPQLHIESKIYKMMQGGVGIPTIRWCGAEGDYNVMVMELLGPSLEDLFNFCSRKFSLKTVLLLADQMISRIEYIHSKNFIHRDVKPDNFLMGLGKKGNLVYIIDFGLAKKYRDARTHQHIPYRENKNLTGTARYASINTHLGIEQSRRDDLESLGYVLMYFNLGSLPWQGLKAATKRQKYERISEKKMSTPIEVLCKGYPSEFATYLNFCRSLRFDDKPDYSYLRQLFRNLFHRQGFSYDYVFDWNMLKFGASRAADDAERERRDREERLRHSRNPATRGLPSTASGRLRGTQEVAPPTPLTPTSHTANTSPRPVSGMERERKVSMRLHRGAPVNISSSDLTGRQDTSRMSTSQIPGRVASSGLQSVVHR
T10 sequence (P37173 23-567): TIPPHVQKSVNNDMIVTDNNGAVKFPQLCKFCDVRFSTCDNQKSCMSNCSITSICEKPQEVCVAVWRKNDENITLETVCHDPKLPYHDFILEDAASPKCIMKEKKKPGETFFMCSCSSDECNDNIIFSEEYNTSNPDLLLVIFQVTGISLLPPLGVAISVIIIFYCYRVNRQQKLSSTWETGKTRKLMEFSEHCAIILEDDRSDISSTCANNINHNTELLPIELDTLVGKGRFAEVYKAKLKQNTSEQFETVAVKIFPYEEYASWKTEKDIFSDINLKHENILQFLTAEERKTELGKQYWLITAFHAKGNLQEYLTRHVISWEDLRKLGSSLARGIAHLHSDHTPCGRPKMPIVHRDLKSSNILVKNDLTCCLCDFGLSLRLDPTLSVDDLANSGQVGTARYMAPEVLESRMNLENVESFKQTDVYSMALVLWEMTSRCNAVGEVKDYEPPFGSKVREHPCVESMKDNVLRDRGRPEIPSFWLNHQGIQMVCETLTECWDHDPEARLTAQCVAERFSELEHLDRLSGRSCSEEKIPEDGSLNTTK

CC(C)(CN)c1nc(-c2ccc(Cl)c(O)c2)c(-c2ccncc2)[nH]1 [MMV030084]
IC50 (Pf Dd2-B2 ABS parasites; Plasmodium falciparum, DD2, 72 h, read-out: Mean IC50, 72 h ABS activity, Dd2-B2 wild-type, 72 h): 120 nM | IC50 (Pf Dd2-B2 ABS parasites; read-out: Mean IC50, 72 h ABS activity, Dd2-B2 wild-type, 72 h): 120 nM | Number of proteins with increased phosphorylation levels [1]: 15 | Number of proteins with phosphorylation status reduced by more than 35% [1]: 16 | IC50 [2]: ≥ 30000 nM | IC50 [3]: ≥ 30000 nM | IC50 [4]: ≥ 30000 nM | Kd (casein kinase 1δ): 95 nM | Kd (nemo-like kinase): 20 nM | Kd (protein kinase N3): 8.5 nM | Kd [5]: 4.5 nM | Kd [6]: 25 nM | Kd [7]: 20 nM | Kd [8]: 35 nM | IC50 [9]: 347 nM | CC50 (in vitro): 41500 nM
